Assay results from publication PMC3981784 (PLoS ONE, 2014).

How the values were obtained:
influenza virus A/WSN/33 = experiment: Immunofluorescence microscopy of intra-nuclear nucleoprotein accumulation (virus entry) in MDCK cells; type: cell-based
[1] = tested on: purified influenza virus A/WSN/33; experiment: Atomic force microscopy (AFM) of virus particles; details: 50 μM; for aggregation of viral particles (AFM images): 1 hour on ice; for heights of virions (AFM): versus DMSO-treated virions
A/WSN/33 (H1N1) = experiment: Hemagglutination inhibition assay with chicken red blood cells; details: Influenza A virus, Erythrocyte, in Gallus gallus, read-out: EC50, inhibition of virus-induced hemagglutination
[2] = tested on: purified influenza virus A/WSN/33; details: PGG 25 μM; TritonX-100 0.5% (v/v)
[3] = molecular target: hemagglutinin derived from influenza A/California/04/2009(H1N1) (Influenza A virus, UniProt C3W5S1); experiment: Competition binding assay with sialic acid (native PAGE band gray scale); type: biochemical; details: for HA aggregation (decrease of relative density of HA monomer) / HA aggregation (decrease of relative density of HA monomer), percent: 6 μM PGG; for hemagglutinin aggregation (native PAGE lane): 600 μM SA alone (Lane 2), 6 μM PGG alone (Lane 3)
MDCK cells = tested on: MDCK cells; design: method as in PMID 21479599, PMID 19575286; details: ref [29], [30], read-out: cytotoxicity EC50; cited from earlier work
influenza virus = tested on: influenza virus; design: method as in PMID 21479599, PMID 19575286; details: ref [29], [30]; read-out: active concentration EC50 (anti-influenza virus activity); cited from earlier work
[4] = tested on: hemagglutinin of A/Puerto Rico/8/1934 (H1N1), A/California/04/2009 (H1N1), A/Netherlands/219/03 (H7N7), and A/Anhui/1/2005 (H5N1); type: binding, influenza A virus; details: four HA subtypes
[5] = tested on: recombinant HA of A/Puerto Rico/8/1934 (H1N1), A/California/04/2009 (H1N1), A/Netherlands/219/03 (H7N7), and A/Anhui/1/2005 (H5N1); type: biochemical, influenza A virus; details: HA incubated on ice 30 min with compound; four HA subtypes

hemagglutinin derived from influenza A/California/04/2009(H1N1), sequence (C3W5S1 entry or part of it, added parts left off): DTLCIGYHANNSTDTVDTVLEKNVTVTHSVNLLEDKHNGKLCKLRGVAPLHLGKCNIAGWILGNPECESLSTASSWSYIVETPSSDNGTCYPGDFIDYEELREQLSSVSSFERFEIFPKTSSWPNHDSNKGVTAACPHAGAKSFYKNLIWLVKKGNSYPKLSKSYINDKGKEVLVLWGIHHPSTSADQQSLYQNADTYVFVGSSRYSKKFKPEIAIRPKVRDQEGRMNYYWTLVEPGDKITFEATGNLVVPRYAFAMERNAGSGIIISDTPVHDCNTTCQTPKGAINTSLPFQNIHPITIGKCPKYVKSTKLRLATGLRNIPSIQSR

## O=C(OC[C@H]1O[C@@H](OC(=O)c2cc(O)c(O)c(O)c2)[C@H](OC(=O)c2cc(O)c(O)c(O)c2)[C@@H](OC(=O)c2cc(O)c(O)c(O)c2)[C@@H]1O)c1cc(O)c(O)c(O)c1 [TGG, 1,2,3,6-Tetra-O-galloyl-beta-D-glucose]
Influenza virus A/WSN/33
  intra-nuclear accumulation of virus nucleoprotein (NP), virus entry: significantly decreased in the number of nucleoprotein-positive nucleus
[1]
  aggregation of viral particles (AFM images): significantly aggregated
  heights of virions (AFM): significantly greater than that of DMSO-treated virions
A/WSN/33 (H1N1)
  EC50: 1 ± 1 nM

## TritonX-100 [reference compound]
[2]
  membrane structures of the virus particles (TEM): destroyed membrane structures

## O=C(OC[C@H]1O[C@@H](OC(=O)c2cc(O)c(O)c(O)c2)[C@H](OC(=O)c2cc(O)c(O)c(O)c2)[C@@H](OC(=O)c2cc(O)c(O)c(O)c2)[C@@H]1OC(=O)c1cc(O)c(O)c(O)c1)c1cc(O)c(O)c(O)c1 [PGG, penta-galloyl-glucose]
Influenza virus A/WSN/33
  intra-nuclear accumulation of virus nucleoprotein (NP), virus entry: significantly decreased in the number of nucleoprotein-positive nucleus
[1]
  aggregation of viral particles (AFM images): significantly aggregated
  heights of virions (AFM): significantly greater than that of DMSO-treated virions
[2]
  membrane structures of the virus particles (TEM): remain undisrupted
[3]; with the presence of 600 μM SA
  HA aggregation (decrease of relative density of HA monomer): 0.22
  HA aggregation (decrease of relative density of HA monomer), percent: 20.7%
[3]; without SA
  HA aggregation (decrease of relative density of HA monomer): 0.33
  HA aggregation (decrease of relative density of HA monomer), percent: 33.2%
[3]
  hemagglutinin aggregation (native PAGE lane): increases hemagglutinin aggregation
MDCK cells
  EC50: 31500 ± 4600 nM
Influenza virus
  EC50: 2510 ± 310 nM
A/WSN/33 (H1N1)
  EC50: 5 ± 2 nM

## O=C(O)c1cc(O)c(O)c(O)c1 [GA, Gallic acid]
Influenza virus A/WSN/33
  intra-nuclear accumulation of virus nucleoprotein (NP), virus entry: viral NP was detected in the nucleus
[4]
  interactions with HAs (SPR): No significant interactions
[5]
  HA aggregation on native PAGE (HA polymer formation): not observed
[1]
  aggregation of viral particles (AFM images): dispersive
A/WSN/33 (H1N1)
  EC50: > 50000 nM

## O=C(O[C@@H]1Cc2c(O)cc(O)cc2O[C@@H]1c1cc(O)c(O)c(O)c1)c1cc(O)c(O)c(O)c1 [EGCG, (−)-epigallocatechin-3-gallate]
A/WSN/33 (H1N1)
  EC50: 430 ± 1 nM

## O=c1oc2c(O)c(O)cc3c(=O)oc4c(O)c(O)cc1c4c23 [EA, Ellagic acid]
A/WSN/33 (H1N1)
  EC50: 446 nM

## CC(=O)N[C@H]1[C@H]([C@H](O)[C@H](O)CO)OC(O)(C(=O)O)C[C@@H]1O (stereo partly shown) [SA, Sialic acid, reference compound]
[3]
  hemagglutinin aggregation (native PAGE lane): reduces hemagglutinin aggregation
